A short description of series [1]: Titration with acetic or lactic acid: pH and physical stability (Table D). The class given is physicochemical.
A short description of series [2]: Histological score of subcutaneous toxicity after 24 h continuous SC LD/CD. The class given is in vivo, Pigs. As to conditions: 0.2% added to LD/CD 5.4/1.5% + 1% ascorbate.
For series [3] the following is noted: cited from earlier work; for Solubility: in words; for pH compatibility: check mark.
A further series addresses T1, Tyrosinase (Homo sapiens, UniProt P14679).
T1 sequence (P14679 19-529): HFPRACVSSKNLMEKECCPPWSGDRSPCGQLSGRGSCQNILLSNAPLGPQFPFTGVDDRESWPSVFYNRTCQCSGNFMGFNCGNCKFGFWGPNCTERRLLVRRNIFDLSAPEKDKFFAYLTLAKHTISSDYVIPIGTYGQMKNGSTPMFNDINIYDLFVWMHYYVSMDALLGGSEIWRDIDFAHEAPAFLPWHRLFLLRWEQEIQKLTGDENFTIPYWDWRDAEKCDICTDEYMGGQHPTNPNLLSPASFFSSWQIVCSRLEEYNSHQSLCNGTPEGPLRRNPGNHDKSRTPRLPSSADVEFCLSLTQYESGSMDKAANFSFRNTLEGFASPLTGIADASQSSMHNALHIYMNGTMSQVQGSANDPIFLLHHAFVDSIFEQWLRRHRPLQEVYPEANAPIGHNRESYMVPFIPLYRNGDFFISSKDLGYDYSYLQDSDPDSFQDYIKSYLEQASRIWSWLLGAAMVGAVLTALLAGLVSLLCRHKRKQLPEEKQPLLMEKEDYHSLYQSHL
As to conditions: tyrosinase inhibitor; cited from earlier work.

A short description of series [4]: Chemical stability of levodopa formulations with carbidopa (Tables F, G). The class given is physicochemical. To be noted: Table F. Here is the method:
The effect of carbidopa on levodopa formulations was investigated. Levodopa (LD) formulations were prepared with 0, 0.5, 1, 1.5 & 2% by weight carbidopa (CD) and a constant concentration of arginine.
In an additional experiment, LD formulations were prepared with 0, 0.5, 1 & 2% CD and respective concentrations of arginine.

Series [5] in a line: Colour formation of levodopa/arginine solutions in vitro (FIG. 1A). The class given is physicochemical. On the procedure: FIG. 1 depicts the effect of carbidopa on the stability of levodopa In Vitro and Ex Vivo: A. 6% weight levodopa and arginine solution with various concentrations (2, 1.5, 1, 0.5%) of carbidopa or no carbidopa were tested for physical stability in vitro. […] B. 7% weight percent levodopa and arginine solution, with or without 2% carbidopa by weight, continuously administered in to the subcutaneous tissue of a 5×5 cm fresh, full-thickness pig skin.
In the absence of air (with N2 in the head space) 0.5% CD was sufficient to inhibit this color formation.

Series [6] can be described thus: Stability of carbidopa formulations with levodopa (Table H). The class given is physicochemical. The text has this: The effect of levodopa on the stability of carbidopa was investigated. Table H indicates results.

`O=C1O[C@H]([C@@H](O)CO)C(O)=C1O` [Ascorbic acid]: the “reduction of pH as compared to Na-ascorbate” value in series [1] is listed as 0.1-0.15 units. As for `C[C@H](CS)C(=O)N1CCC[C@H]1C(=O)O` [Captopril], the “protection from local toxicity compared to 1% ascorbate alone” value in series [2] is given as “did not have a supplementary effect”. Further, in series [3], the Solubility entry was “Soluble”. For the same compound, at Tyrosinase, the Min required concentration is 0.04 mg/mL. With `O=C(O)[C@@H](S)[C@@H](S)C(=O)O` [DMSA (succimer)], in series [3], the Solubility result is recorded as “Soluble”. Regarding `CC(C)(S)[C@@H](N)C(=O)O` [DPA (D-penicillamine), D-penicillamine], the Solubility result in series [3] is on record as “Soluble”.

As for `O=C([O-])CN(CCN(CC(=O)[O-])CC(=O)[O-])CC(=O)[O-].[Ca+2].[Na+].[Na+]` [EDTA calcium disodium], the “protection from local toxicity compared to 1% ascorbate alone” value in series [2] is given as “did not have a supplementary effect”. The pH compatibility entry in series [3] is listed as “√”. As to `O=C([O-])CN(CCN(CC(=O)[O-])CC(=O)O)CC(=O)O.[Na+].[Na+]` [EDTA disodium], the pH compatibility result in series [3] was “√”. Consider `N[C@@H](CS)C(=O)O` [L-Cysteine], for which the Solubility entry in series [3] is “Soluble”. Take `Cn1cc[nH]c1=S` [Methimazole]: the Solubility entry in series [3] is “Soluble”. In the case of `C[C@@](Cc1ccc(O)c(O)c1)(NN)C(=O)O` [carbidopa], the “effect on the chemical stability of levodopa” value in series [4] is “does not have a significant effect”. For the same compound, the “dark yellow color formation” value in series [5] (6% levodopa/arginine solution, in the presence of air, dose related) is on record as “prevented dark yellow color formation”. In series [5] (absence of air (N2 in the head space)), the “carbidopa concentration sufficient to inhibit color formation” value is 0.5%. Also, the “sensitivity of CD to oxidation and degradation” value in series [6] is “more stable in the presence of LD”.

The values are drawn from patent US9040578B2, “Continuous administration of L-dopa, dopa decarboxylase inhibitors, catechol-O-methyl transferase inhibitors and compositions for same” (Neuroderm, Ltd., priority 2010, dated 2015).
